According to patent publication US9539176B2 (BAYER PHARMA AKTIENGESELLSCHAFT, priority 2012, dated 2017):

Experiment: comparative stress test of the active coating suspension (60° C., 48 hours, HPLC)
Assay type: physicochemical
Description: The chemical stability of the coating suspension was verified by a comparative stress test: micronized candersartan cilexetil as a solid, an aqueous suspension of micronized candesartan cilexetil, and aqueous suspensions of micronized candesartan cilexetil together with Opadry II 85F19250 Clear in three different ratios were stored at 60° C. for 48 hours. The percentage of the stability indicating impurity Desethyl-Candesartan cilexetil was determined via HPLC. The same batch of micronized candesartan cilexetil has been used for all samples.

Desethyl-Candesartan cilexetil, start (start, before storage): 0.11%
Desethyl-Candesartan cilexetil, 48 hours (stored at 60° C. for 48 hours): 0.41%
SMILES: CCOc1nc2cccc(C(=O)OC(C)OC(=O)OC3CCCCC3)c2n1Cc1ccc(-c2ccccc2-c2nnn[nH]2)cc1 (centres unmarked) [micronized candesartan cilexetil (solid), candesartan cilexetil]
